Reference: patent US5605895A, “Cephalosporin antibiotics and processes for preparation thereof” (Lucky, Ltd., priority 1993, dated 1997)
Converted amounts (≈) assume the structure as drawn.

Tests used:
[1] = Pharmacokinetic properties in SD rats; assay type: in vivo; conditions: rat; SD rats (male), intravenous, 20 mg/kg; blood, biological assay (agar well method)
Procedure: The pharmacokinetic properties of the compound of the present invention were determined using SD rats (.male.) weighing 220 to 340 g. Specifically, the test samples were administered in intravenous route in an amount of 20 mg/kg to 2 to 5 test animals. Blood was taken from femoral vein every hours after the administration and then subjected to a biological assay using agar well method to measure the blood concentration. The results of pharmacokinetic properties calculated from the above blood concentration are described in the following Table 3.

E. coli TEM9 2639E = test: Minimum inhibitory concentration, agar dilution; assay type: cell-based; conditions: Escherichia coli, TEM92639E, 20 h, read-out: Minimum Inhibitory Concentration
Procedure: (§1) The minimum inhibitory concentration was determined by diluting the test compounds according to 2-fold dilution, suspending them in M uller-Hinton agar medium, inoculating the test strains having 10^7 CFU per 1 ml into the medium and then culturing the medium at 37° C. for 20 hours.

K. aerogenes 1976E = test: Minimum inhibitory concentration, agar dilution; assay type: cell-based; conditions: Klebsiella aerogenes, Muller-Hinton agar, 10^7 CFU per ml, 37° C., 20 hours
Procedure: as §1

E. coli 3190Y = test: Minimum inhibitory concentration, agar dilution; assay type: cell-based; conditions: Escherichia coli; E. coli 3190Y; Muller-Hinton agar, 10^7 CFU per ml, 37° C., 20 hours; read-out: Minimum Inhibitory Concentration
Procedure: as §1

E. coli 10536 = test: Minimum inhibitory concentration, agar dilution; assay type: cell-based; conditions: Escherichia coli; E. coli 10536; Muller-Hinton agar, 10^7 CFU per ml, 37° C., 20 hours; read-out: Minimum Inhibitory Concentration
Procedure: as §1

A. calcoaceticus 15473A = test: Minimum inhibitory concentration, agar dilution; assay type: cell-based; conditions: Acinetobacter calcoaceticus, Muller-Hinton agar, 10^7 CFU per ml, 37° C., 20 hours
Procedure: as §1

S. faecalis 29212A = test: Minimum inhibitory concentration, agar dilution; assay type: cell-based; conditions: Enterococcus faecalis; S. faecalis 29212A; Muller-Hinton agar, 10^7 CFU per ml, 37° C., 20 hours; read-out: Minimum Inhibitory Concentration
Procedure: as §1

E. coli TEM1 1193E = test: Minimum inhibitory concentration, agar dilution; assay type: cell-based; conditions: Escherichia coli, TEM11193E, 20 h, read-out: Minimum Inhibitory Concentration
Procedure: as §1

E. coli TEM5 3739E = test: Minimum inhibitory concentration, agar dilution; assay type: cell-based; conditions: Escherichia coli, TEM53739E, 20 h, read-out: Minimum Inhibitory Concentration
Procedure: as §1

S. aureus giorigio = test: Minimum inhibitory concentration, agar dilution; assay type: cell-based; conditions: Staphylococcus aureus, Muller-Hinton agar, 10^7 CFU per ml, 37° C., 20 hours
Procedure: as §1

S. aureus 6538pA = test: Minimum inhibitory concentration, agar dilution; assay type: cell-based; conditions: Staphylococcus aureus, Muller-Hinton agar, 10^7 CFU per ml, 37° C., 20 hours
Procedure: as §1

E. cloacae 1194E = test: Minimum inhibitory concentration, agar dilution; assay type: cell-based; conditions: Enterobacter cloacae, 1194E, 20 h, read-out: Minimum Inhibitory Concentration
Procedure: as §1

S. marcescens 1826E = test: Minimum inhibitory concentration, agar dilution; assay type: cell-based; conditions: Serratia marcescens, Muller-Hinton agar, 10^7 CFU per ml, 37° C., 20 hours
Procedure: as §1

P. aeruginosa 10145 = test: Minimum inhibitory concentration, agar dilution; assay type: cell-based; conditions: Pseudomonas aeruginosa, Muller-Hinton agar, 10^7 CFU per ml, 37° C., 20 hours
Procedure: as §1

P. aeruginosa 6065Y = test: Minimum inhibitory concentration, agar dilution; assay type: cell-based; conditions: Pseudomonas aeruginosa, 20 h, read-out: Minimum Inhibitory Concentration
Procedure: as §1

S. typhimurium 14028A = test: Minimum inhibitory concentration, agar dilution; assay type: cell-based; conditions: Salmonella enterica; S. typhimurium 14028A; Muller-Hinton agar, 10^7 CFU per ml, 37° C., 20 hours; read-out: Minimum Inhibitory Concentration
Procedure: as §1

P. aeruginosa 1912E = test: Minimum inhibitory concentration, agar dilution; assay type: cell-based; conditions: Pseudomonas aeruginosa, 20 h, read-out: Minimum Inhibitory Concentration
Procedure: as §1

SMILES: Cn1cc[n+]2c(SCC3=C(C(=O)[O-])N4C(=O)C(NC(=O)C(=NOC(C(=O)O)c5ccc(O)c(O)c5)c5csc(N)n5)C4SC3)nc(N)cc12 (stereo not drawn) [I-11(a), 7-[(Z)-2-(2-aminothiazol-4-yl)-2-(α-carboxy-3,4-dihydroxybenzyloxyimino)acetamido]-3-(7-amino-1-methyl-1H-imidazo[1,2-c]pyrimidinium-5-yl)-thiomethyl-3-cephem-4-carboxylate]
- AUC [1]: 47900 ng·h/mL
- half-life [1]: 1.13 h
- MIC (E. coli TEM9 2639E): 1 µg/mL (≈ 1.37 µM)
- MIC (K. aerogenes 1976E): 0.13 µg/mL (≈ 0.179 µM)
- MIC (E. coli 3190Y): 0.031 µg/mL (≈ 0.0426 µM)
- MIC (E. coli 10536): ≤ 0.008 µg/mL
- MIC (A. calcoaceticus 15473A): 0.5 µg/mL (≈ 0.687 µM)
- MIC (S. faecalis 29212A): 8 µg/mL (≈ 11 µM)
- MIC (E. coli TEM1 1193E): 0.063 µg/mL (≈ 0.0866 µM)
- MIC (E. coli TEM5 3739E): 0.25 µg/mL (≈ 0.344 µM)
- MIC (S. aureus giorigio): 0.5 µg/mL (≈ 0.687 µM)
- MIC (S. aureus 6538pA): 0.5 µg/mL (≈ 0.687 µM)
- MIC (E. cloacae 1194E): 1 µg/mL (≈ 1.37 µM)
- MIC (S. marcescens 1826E): 0.25 µg/mL (≈ 0.344 µM)
- MIC (P. aeruginosa 10145): 0.25 µg/mL (≈ 0.344 µM)
- MIC (P. aeruginosa 6065Y): 0.5 µg/mL (≈ 0.687 µM)
- MIC (S. typhimurium 14028A): 0.016 µg/mL (≈ 0.022 µM)
- MIC (P. aeruginosa 1912E): 0.5 µg/mL (≈ 0.687 µM)
